From PMC3797739, “Identification of Semicarbazones, Thiosemicarbazones and Triazine Nitriles as Inhibitors of Leishmania mexicana Cysteine Protease CPB” (PLoS ONE, 2013)

Legend:
[1] = target: L. mexicana CPB2.8∆CTE (Leishmania mexicana, UniProt P36400); test: CPB2.8∆CTE fluorescence endpoint assay with Z-F-R-AMC substrate; assay type: biochemical
Procedure: (§1) The activities of CPB2.8∆CTE and BtCatB were measured in a homogeneous fluorescence endpoint assay using Z-F-R-AMC as substrate, modified from published methods. The fluorophore AMC (7-amino-4-methylcoumarin) is released by active cysteine protease, and can be detected at 360 nm excitation and 465 nm emission. The assay was optimized for automated high throughput screening on a Biomek FX workstation (Beckman Coulter). All assays were carried out in black 384 well plates at room temperature (22°C). Each plate contained 24 controls in the 23rd and 24th rows of the plate, including 8 positive controls and 8 blanks (without enzyme) as well as 8 inhibitor controls. E-64 was used as standard inhibitor. […] Test compounds available as 10 mM stock solutions in DMSO were diluted further in DMSO, except for the last 1:10 step, which was done in H2O to lower the DMSO concentration in the assay. Final concentrations of the test compounds from 30 µM to 0.3 nM were used. For the L. mexicana CPB2.8∆CTE assay, 5 µl test compound or 5 µl DMSO in acetate buffer (10% DMSO) was added to each well of the microtiter plate. Subsequently, 25 µl of a premix containing sodium acetate buffer (final concentration [f.c.] 100 mM), titriplex II (f.c. 1 mM) (Merck, Darmstadt, Germany), DTT (f.c. 10 mM) (Carl Roth GmbH, Karlsruhe, Germany), triton (f.c. 0.01%) (Merck, Darmstadt, Germany), BSA (f.c. 0.1 mg/ml) (PAA Laboratories GmbH, Pasching, Austria) and enzyme was added to each well, except the wells for the blanks, which include the premix without enzyme. After an incubation time of 10 min, the reaction was started by addition of substrate (20 µl Z-F-R-AMC; f.c. 20 µM). The reaction was stopped after 35 min incubation at room temperature by addition of 10 µl inhibitor E64 (f.c. 16.7 µM) and enzyme activity was measured with a SpectraFluorPlus (Tecan Inc., Durham, NC) plate reader using excitation at 360 nm with emission at 465 nm. The assay procedure for BtCatB was the same as for the CPB2.8∆CTE assay with the exceptions of the final concentration of the substrate Z-F-R-AMC (100 µM) and the stop of the assay using a stop buffer containing sodium acetate and sodium chlorine acetate (f.c. 41.7 mM each).
(§2) The percentage enzyme activity was calculated using the formula (V-B)/(C-B) x 100%, with V being the absorbance of the assay containing the test compound, B being the absorbance of the negative control (‘blank’) and C being the absorbance of the positive control. In primary screening, all compounds of the screening library were tested at 10 µM in double point measurements. Z´ factors, which describe the quality of an assay, were in the range of 0.85-0.99. The Z´ factor is defined in terms of four parameters: the means and standard deviations of both the positive (p) and negative (n) controls: Z´= 1-((3 x (STDEVp + STDEVn))/(MEANp - MEANn)).
(§3) The theoretical hit limit for a HTS primary screen can be calculated as MEAN + 3 x STDEV of inhibitions from diverse compounds. […] In our case, based on a preliminary screen of >3000 diverse compounds, the hit limit was determined between 12.8% and 22.9% inhibition. For practical reasons, screening hit limits are normally set above this limit, aiming at approximately 0.2-0.4% hits from a diverse library. Therefore, 50% inhibition at 10 µM compound concentration compared to the positive controls was considered a hit compound and were subjected to hit verification (IC50 determination from liquid compound stock) using CPB2.8∆CTE and BtCatB to get the activity profile of the compounds. Hit confirmation (IC50 determination from freshly dissolved solid compound stock) was performed for all compounds with an IC50 ≤ 30 µM on CPB2.8∆CTE. Compound concentrations used for IC50 determinations were as follows: 30 µM, 10 µM, 3 µM, 1 µM, 0.3 µM, 0.1 µM, 0.03 µM, 0.01 µM, 0.003 µM, 0.001 µM, and 0.0003 µM. […]

[2] = target: T1, bovine cathepsin B (BtCatB) (Bos taurus, UniProt P07688); test: BtCatB counter assay, fluorescence endpoint with Z-F-R-AMC substrate; assay type: biochemical; conditions: mean ± SD, three independent experiments, substrate Z-F-R-AMC 100 µM
T1 construct: purchased Sigma-Aldrich Inc., St. Louis, MO, USA; host or cells: bovine spleen
Procedure: The activities of CPB2.8∆CTE and BtCatB were measured in a homogeneous fluorescence endpoint assay using Z-F-R-AMC as substrate, modified from published methods. The fluorophore AMC (7-amino-4-methylcoumarin) is released by active cysteine protease, and can be detected at 360 nm excitation and 465 nm emission. The assay was optimized for automated high throughput screening on a Biomek FX workstation (Beckman Coulter). All assays were carried out in black 384 well plates at room temperature (22°C). Each plate contained 24 controls in the 23rd and 24th rows of the plate, including 8 positive controls and 8 blanks (without enzyme) as well as 8 inhibitor controls. E-64 was used as standard inhibitor. […] Test compounds available as 10 mM stock solutions in DMSO were diluted further in DMSO, except for the last 1:10 step, which was done in H2O to lower the DMSO concentration in the assay. Final concentrations of the test compounds from 30 µM to 0.3 nM were used. For the L. mexicana CPB2.8∆CTE assay, 5 µl test compound or 5 µl DMSO in acetate buffer (10% DMSO) was added to each well of the microtiter plate. […] The reaction was stopped after 35 min incubation at room temperature by addition of 10 µl inhibitor E64 (f.c. 16.7 µM) and enzyme activity was measured with a SpectraFluorPlus (Tecan Inc., Durham, NC) plate reader using excitation at 360 nm with emission at 465 nm. […]
The percentage enzyme activity was calculated using the formula (V-B)/(C-B) x 100%, with V being the absorbance of the assay containing the test compound, B being the absorbance of the negative control (‘blank’) and C being the absorbance of the positive control. […]
The theoretical hit limit for a HTS primary screen can be calculated as MEAN + 3 x STDEV of inhibitions from diverse compounds. […]

[3] = system: L. mexicana CPB2.8∆CTE; test: CPB2.8∆CTE fluorescence endpoint assay with Z-F-R-AMC substrate; assay type: biochemical, Leishmania mexicana; conditions: ratio of IC50 on CPB2.8∆CTE to IC50 on BtCatB
Procedure: as §1, §2, §3

Chain of L. mexicana CPB2.8∆CTE (Leishmania mexicana, UniProt P36400) (P36400 126-343): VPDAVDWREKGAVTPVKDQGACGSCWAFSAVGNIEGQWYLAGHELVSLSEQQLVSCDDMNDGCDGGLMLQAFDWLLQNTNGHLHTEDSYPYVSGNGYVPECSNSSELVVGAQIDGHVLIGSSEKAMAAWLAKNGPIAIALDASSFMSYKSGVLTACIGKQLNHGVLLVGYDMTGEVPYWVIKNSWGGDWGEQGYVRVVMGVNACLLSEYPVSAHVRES

## CC(C)C[C@H](NC(=O)[C@H]1O[C@@H]1C(=O)O)C(=O)NCCCCNC(=N)N (relative stereo) [Compound E-64, 1-[N-[(L-3-trans-carboxyoxirane-2-carbonyl)-L-leucyl]amino]-4-guanidinobutane, reference compound]
[1]; final concentration 10 µM, standard inhibitor control of the CPB2.8∆CTE and BtCatB assays
  inhibition of protease activity: complete inhibition

## NC(=O)N/N=c1\oc2ccccc2cc1-c1nc2ccccc2[nH]1 [CP229988, 3-[(1H-benzimidazol-2-yl)-2H-1-benzopyran-2-ylidene]-2-carbaldehyde semicarbazone]
[2]
  IC50: > 30000 nM
[3]
  selectivity ratio (CPB2.8∆CTE/BtCatB): < 0.00033
[1]
  IC50: 10 ± 3 nM
  Ki: 5 ± 2 nM

## COc1ncccc1Nc1nc(C#N)nc(NC2CCCCC2)n1 [CP241026, 4-(cyclohexylamino)-6-[(2-methoxy-3-pyridinyl)amino]-1,3,5-triazine-2-carbonitrile]
[2]
  IC50: 13800 ± 4500 nM
[1]
  IC50: 1100 ± 150 nM
  Ki: 570 ± 80 nM

## NC(=S)NN=Cc1c(-c2ccccc2)[nH]c2ccccc12 [CP247128, 2-phenyl-1H-indole-3-carbaldehyde thiosemicarbazone]
[1]
  IC50: 60 ± 10 nM

## COc1ccc(-c2ccc(/C=N/NC(N)=S)o2)cc1 [CP247129, 5-(4-methoxy-phenyl)-2-furanyl-2-carbaldehyde thiosemicarbazone]
[2]
  IC50: > 30000 nM
[1]
  IC50: 70 ± 40 nM
  Ki: 40 ± 20 nM
